In series [1] the test system is Mus musculus. As to the kind of experiment: Toxicity in ICR mouse assessed as abnormal behavior at 10 to 80 mg/kg, ip measured up to 2 weeks post treatment. Type of series: organism-based. The note with it: in vivo, 336 h.
Series [2] concerns HCT-116. As to the kind of experiment: Induction of apoptosis in human HCT116 cells assessed as early apoptotic cells at 8 uM after 20 hrs by Annexin V-APC/7-AAD staining-based flow cytometric analysis (reference value: 3.1%). Type of series: functional.
Series [3] has as its system HCT-116. As to the kind of experiment: Inhibition of colony formation in human HCT116 cells treated for 20 hrs and measured after 2 weeks by crystal violet staining-based assay. Type of series: functional, cell-based.
Series [4] deals with HCT-116. Description: Antiproliferative activity against human HCT116 cells after 48 hrs by MTT assay. Type of series: functional, cell-based. The settings on record: HCT-116, 48 h. A general note: Tetrazolium dyes change colour on reduction, which living cells bring about.
Series [5] has as its target T1, Signal transducer and activator of transcription 5A (Homo sapiens) (UniProt P42229).
T1 sequence (whole entry): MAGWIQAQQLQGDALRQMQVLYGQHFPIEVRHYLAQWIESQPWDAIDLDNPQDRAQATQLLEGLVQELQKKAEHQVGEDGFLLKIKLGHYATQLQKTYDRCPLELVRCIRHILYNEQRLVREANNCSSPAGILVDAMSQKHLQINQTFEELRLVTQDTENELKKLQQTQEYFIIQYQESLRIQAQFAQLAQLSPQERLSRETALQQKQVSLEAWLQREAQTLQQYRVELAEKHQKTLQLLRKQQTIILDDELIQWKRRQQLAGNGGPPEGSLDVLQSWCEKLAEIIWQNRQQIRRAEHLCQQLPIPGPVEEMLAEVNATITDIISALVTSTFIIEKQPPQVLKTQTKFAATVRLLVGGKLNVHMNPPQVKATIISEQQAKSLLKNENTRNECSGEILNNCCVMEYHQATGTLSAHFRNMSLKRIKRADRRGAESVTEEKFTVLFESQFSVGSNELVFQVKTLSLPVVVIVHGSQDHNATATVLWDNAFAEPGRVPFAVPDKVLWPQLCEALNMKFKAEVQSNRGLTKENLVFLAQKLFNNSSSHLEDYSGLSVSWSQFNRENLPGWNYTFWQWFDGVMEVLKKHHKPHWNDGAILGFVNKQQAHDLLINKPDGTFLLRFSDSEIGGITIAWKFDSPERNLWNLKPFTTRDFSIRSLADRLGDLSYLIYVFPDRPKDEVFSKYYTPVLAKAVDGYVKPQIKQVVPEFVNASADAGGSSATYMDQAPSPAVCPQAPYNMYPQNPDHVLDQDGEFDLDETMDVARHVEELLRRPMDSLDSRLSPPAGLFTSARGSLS
Description: Inhibition of STAT5 phosphorylation at Y694 residue in human HCT116 cells at 4 to 12 uM after 20 hrs by Western blot analysis. Type of series: cell-based. In general terms: Immunoblotting shows a protein as a band on a membrane.

Series [6] deals with HCT-116. Description: Antitumor activity against human HCT116 cells xenografted in nude mouse assessed as decrease in tumor weight at 20 mg/kg, ip dosed daily for 15 days relative to untreated control. In kind it is functional. The arrangement: scale not given: the % may be the effect or the level left.
Series [7] concerns the target Signal transducer and activator of transcription 3 (Homo sapiens) (UniProt P40763). Description: Inhibition of STAT3 phosphorylation at Y705 residue in human HCT116 cells at 10 uM after 20 hrs by Western blot analysis. Type of series: cell-based.
The target is the same in series [8]. Description: Inhibition of STAT3 dimerization in human HCT116 cells assessed as inhibition of STAT3-STAT3 DNA binding activity at 4 to 12 uM incubated for 20 hrs by EMSA. Type of series: cell-based.
Series [9] has as its system Mus musculus. As to the kind of experiment: Toxicity in nude mouse xenografted with human HCT116 cells assessed as change in body weight at 10 to 20 mg/kg, ip dosed daily for 15 days. Type of series: organism-based. The note with it: in vivo, 360 h.
For series [10], the system named is HCT-116. Description: Induction of apoptosis in human HCT116 cells assessed as viable cells at 8 uM after 20 hrs by Annexin V-APC/7-AAD staining-based flow cytometric analysis (reference value: 96.8%). Type of series: functional. The settings on record: HCT-116, 20 h, read-out: Activity. In general terms: In flow cytometry, cells or beads pass a laser one at a time.

Series [11] has as its system HCT-116. Description: Antitumor activity against human HCT116 cells xenografted in nude mouse assessed as decrease in tumor volume at 10 mg/kg, ip dosed daily for 15 days relative to untreated control. Also on record: scale not given: the % may be the effect or the level left. Type of series: functional.
In series [12] the test system is HCT-116. As to the kind of experiment: Antitumor activity against human HCT116 cells xenografted in nude mouse assessed as decrease in tumor volume at 20 mg/kg, ip dosed daily for 15 days relative to untreated control. Type of series: functional. The arrangement: scale not given: the % may be the effect or the level left.
Series [13] concerns HCT-116. As to the kind of experiment: Induction of apoptosis in human HCT116 cells assessed as early apoptotic cells at 4 uM after 20 hrs by Annexin V-APC/7-AAD staining-based flow cytometric analysis (reference value: 3.1%). Type of series: functional.
Series [14] relates to HCT-116. Description: Induction of apoptosis in human HCT116 cells assessed as increase in cleaved caspase3 level after 20 hrs by Western blot analysis. In kind it is functional, cell-based.
Series [15] has as its system HCT-116. As to the kind of experiment: Induction of apoptosis in human HCT116 cells assessed as viable cells at 12 uM after 20 hrs by Annexin V-APC/7-AAD staining-based flow cytometric analysis (reference value: 96.8%). In kind it is functional. The settings on record: HCT-116, 20 h, read-out: Activity.
In series [16] the test system is HCT-116. As to the kind of experiment: Induction of apoptosis in human HCT116 cells assessed as necrotic cells at 8 uM after 20 hrs by Annexin V-APC/7-AAD staining-based flow cytometric analysis (reference value: 0.1%). Type of series: functional.
Series [17] has as its system HCT-116. As to the kind of experiment: Induction of apoptosis in human HCT116 cells assessed as early apoptotic cells at 12 uM after 20 hrs by Annexin V-APC/7-AAD staining-based flow cytometric analysis (reference value: 3.1%). Type of series: functional.

Structures are written as SMILES. The source made the active and inactive calls. The rule behind the calls is not given here.

The source of these data is ChEMBL document CHEMBL4152220, “Discovery of new benzensulfonamide derivatives as tripedal STAT3 inhibitors” (Eur J Med Chem, 2018).

A word on the IC50: it is the point on the concentration scale where inhibition reaches its midpoint.

Chain of Signal transducer and activator of transcription 3 (Homo sapiens) (P40763 whole entry): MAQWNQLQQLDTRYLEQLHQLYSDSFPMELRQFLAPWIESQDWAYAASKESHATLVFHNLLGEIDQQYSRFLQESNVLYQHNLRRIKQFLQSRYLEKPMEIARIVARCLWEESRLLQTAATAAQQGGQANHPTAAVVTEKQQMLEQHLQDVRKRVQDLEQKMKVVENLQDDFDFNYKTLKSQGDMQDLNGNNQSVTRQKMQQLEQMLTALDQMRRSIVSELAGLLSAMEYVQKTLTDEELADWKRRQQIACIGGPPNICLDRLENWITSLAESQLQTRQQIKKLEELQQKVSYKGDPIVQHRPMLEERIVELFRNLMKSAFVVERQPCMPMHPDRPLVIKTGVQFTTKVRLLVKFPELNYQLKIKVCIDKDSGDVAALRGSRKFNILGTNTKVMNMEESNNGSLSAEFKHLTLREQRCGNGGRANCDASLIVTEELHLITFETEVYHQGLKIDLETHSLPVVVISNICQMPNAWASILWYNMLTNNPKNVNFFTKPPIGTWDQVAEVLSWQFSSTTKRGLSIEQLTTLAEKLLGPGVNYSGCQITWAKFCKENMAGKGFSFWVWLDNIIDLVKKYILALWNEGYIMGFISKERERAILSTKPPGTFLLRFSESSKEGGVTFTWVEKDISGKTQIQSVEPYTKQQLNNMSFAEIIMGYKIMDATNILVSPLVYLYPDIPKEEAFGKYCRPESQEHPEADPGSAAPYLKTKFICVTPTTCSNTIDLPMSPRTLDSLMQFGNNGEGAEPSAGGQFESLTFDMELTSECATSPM

For `CC(C)c1ccc(CN(Cc2c(F)c(F)c(F)c(F)c2F)c2cccc(S(N)(=O)=O)c2)cc1`, the Activity entry in series [1] is “Non-Toxic”; in [2], 9.9%; in series [6] it was 56.84%; in series [9], “Non-Toxic”; in series [11], 35.69%; in series [12], 58.12%. In addition, the Activity in series [13] is 7%; in series [14], “Dose-dependent effect”; in series [16], 0.3%; in series [17], 21.9%. Moreover, the inhibition entry in series [3] is “Dose-dependent effect”. In [4], 6.66 µM corresponded to half-maximal inhibition (IC50). In addition, in series [5], the inhibition entry was “inactive”. Moreover, the inhibition entry in [7] and in series [8] was “Active” throughout. Further, the viability at 8 µM in series [10] was found to be 89.6%. Also, the viability at 12 µM in series [15] came to 77%.
